Two molecules from patent US12485178B2, “Bifunctional small molecules to target the selective degradation of circulating proteins” (YALE UNIVERSITY, priority 2018, dated 2025) can be followed below.

Assay [1] addresses T1, human MIF (Homo sapiens, UniProt P14174).
T1 sequence (P14174 2-115 limits assumed): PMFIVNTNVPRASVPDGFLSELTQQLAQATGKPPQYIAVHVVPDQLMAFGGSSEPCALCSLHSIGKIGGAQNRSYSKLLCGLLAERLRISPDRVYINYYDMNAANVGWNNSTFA
Kind of assay: Depletion of human MIF from supernatant of cultured HepG2 cells (sandwich ELISA). The format is cell-based. The conditions noted are these: 100 nM huMIF, after 24 hours. As to the method:
In an experiment the results of which are presented in FIG. 3, bifunctional molecules were able to deplete human MIF from the supernatant of culture HepG2 cells. Briefly, human MIF (100 nM) was added to cell culture media in the presence of negative control MIF inhibitor 3w as well as bifunctional molecules MIF-NVS-PEGn-GN3, MIF-GN3, MIF-PEGn-Gn3, MIF-AcF3-1, MIF-AcF3-2, and MIF-AcF3-3. All molecules utilized a known MIF-binding ligand. Experiments were performed in 96 well plates (approximate surface area 0.3 cm^2). HepG2 cells were grown to 90% confluency in RPMI media, then washed with PBS (2×) and treated with serum-free media (optimem+0.1% BSA, +Pen/Strep) containing 100 nM huMIF (Cayman Chemical) and compounds (when applicable). Compounds were diluted from 1 mM stock solutions in DMSO. After 24 hours, a sample of the supernatant (2 uL) was collected, diluted 1:100, and analyzed for MIF content by sandwich ELISA (and incubated for 24 hours in the presence or absence of compound). Remaining MIF levels were determined by sandwich ELISA (biolegend monoclonal anti-MIF and biotinylated anti-MIF antibodies). Data represents the average of at least 3 biological replicates, and error bars represent a standard deviation. After 24 hours, up to 95.3% of the MIF had been depleted from cell culture media (in the case of MIF-AcF3-3).

For assay [2], the target named is T1, human MIF. As to the kind of experiment: Trafficking of MIF internalized by HepG2 cells to lysosomes (immunofluorescence colocalization). To be noted: 100 nM rhuMIF, 200 nM compound, 12 hours. Type of assay: cell-based. As to the method:
In this experiment, cells were incubated with rhuMIF (Cayman) at a concentration of 100 nM with 200 nM MIF-GN3.

Assay [3] addresses T1, human MIF. Kind of assay: Depletion of injected human MIF from mice (serum sandwich ELISA). Type of assay: in vivo, mouse. As to the method:
Human MIF has a half-life of approximately 40 minutes in mice. In this experiment, human recombinant MIF (Cayman chemical) was co-injected into mice with an anti-DNP IgG, which was used as an injection positive control. In particular, nude mice were injected with 5 μg recombinant human MIF and 200 μg anti-DNP IgG as an injection control (FIG. 4). MIF-GN3 was then injected at the concentration shown and blood drawn every twenty minutes over the course of two hours. Serum was diluted 1:100 and analyzed for MIF content by sandwich ELISA (biolegend monoclonal anti-MIF and biotinylated anti-MIF antibodies). […] In the mice treated with MIF-GN3, a moderate increase in huMIF levels up to 20 ng/ml was seen, while in mice injected with PBS negative control, serum levels of up to 150 ng/ml were observed, evidencing a substantial decrease in huMIF levels as a consequence of the administration of MIF-GN3.

In assay [4] the test system is PC3 human prostate cancer cells. Kind of assay: Mouse model of prostate cancer (PC3 engraftment), tumor growth. The format is in vivo. The conditions noted are these: nude mice engrafted with PC3 cells, treatment initiated immediately. The source says: In this experiment, nude mice were engrafted with PC3 human prostate cancer cells. Treatment was then initiated immediately with either a non-bifunctional MIF inhibitor (3w), an anti-MIF antibody, or MIF-GN3.

Turning to `O=C(CCOCC(COCCC(=O)NCCOCCOCCOCCOC[C@@]12CO[C@@H](O1)[C@H](NC(=O)C(F)(F)F)[C@@H](O)[C@H]2O)(COCCC(=O)NCCOCCOCCOCCOC[C@@]12CO[C@@H](O1)[C@H](NC(=O)C(F)(F)F)[C@@H](O)[C@H]2O)NC(=O)CCCOc1ccc2nc(-c3cn(-c4ccc(O)c(F)c4)nn3)ccc2c1)NCCOCCOCCOCCOC[C@@]12CO[C@@H](O1)[C@H](NC(=O)C(F)(F)F)[C@@H](O)[C@H]2O` [MIF-AcF3-3], at human MIF [1], the “MIF depleted from cell culture media” value was found to be 95.3%.
For the molecule `CC(=O)N[C@H]1[C@H](OCCOCCOCCNC(=O)CCOCC(COCCC(=O)NCCOCCOCCO[C@@H]2O[C@H](CO)[C@H](O)[C@H](O)[C@H]2NC(C)=O)(COCCC(=O)NCCOCCOCCO[C@@H]2O[C@H](CO)[C@H](O)[C@H](O)[C@H]2NC(C)=O)NC(=O)CNC(=O)CCCOc2ccc3nc(-c4cn(-c5ccc(O)c(F)c5)nn4)ccc3c2)O[C@H](CO)[C@H](O)[C@@H]1O` [MIF-GN3], on human MIF [2], the “MIF internalization in lysosomes” value was “evidencing internalization in lysosomes”. In addition, at human MIF [3] (nude mice injected with 5 μg recombinant human MIF, blood drawn over two hours), the “serum huMIF levels” value is recorded as “up to 20 ng/ml”. Also, the “depletion of injected human MIF from mice” value at human MIF [3] (nude mice, FIG. 5) is “mediates the depletion of injected human MIF from mice”. In assay [4], the tumor growth result is “slowing of tumor growth”.
